Results from patent publication US11492335B2, “Aryl or heteroaryl triazolone derivatives or salts thereof, or pharmaceutical compositions comprising the same” (YUHAN CORPORATION, priority 2018, dated 2022).
Counter-ions that a name gives are not always drawn. Like-named read-outs stand apart in the source and are kept apart here.

Assays:
Type in all cases: biochemical
[1] = target: T1, recombinant human DAO (diamine oxidase) (Homo sapiens, UniProt P19801); assay: Activity on recombinant human DAO, Amplex Red method, 1 mM putrescine substrate; conditions: recombinant human DAO, read-out: Inhibitory Activity (IC50, nM) DAO
T1 construct: purchased R&D systems
T1 sequence (P19801 20-751): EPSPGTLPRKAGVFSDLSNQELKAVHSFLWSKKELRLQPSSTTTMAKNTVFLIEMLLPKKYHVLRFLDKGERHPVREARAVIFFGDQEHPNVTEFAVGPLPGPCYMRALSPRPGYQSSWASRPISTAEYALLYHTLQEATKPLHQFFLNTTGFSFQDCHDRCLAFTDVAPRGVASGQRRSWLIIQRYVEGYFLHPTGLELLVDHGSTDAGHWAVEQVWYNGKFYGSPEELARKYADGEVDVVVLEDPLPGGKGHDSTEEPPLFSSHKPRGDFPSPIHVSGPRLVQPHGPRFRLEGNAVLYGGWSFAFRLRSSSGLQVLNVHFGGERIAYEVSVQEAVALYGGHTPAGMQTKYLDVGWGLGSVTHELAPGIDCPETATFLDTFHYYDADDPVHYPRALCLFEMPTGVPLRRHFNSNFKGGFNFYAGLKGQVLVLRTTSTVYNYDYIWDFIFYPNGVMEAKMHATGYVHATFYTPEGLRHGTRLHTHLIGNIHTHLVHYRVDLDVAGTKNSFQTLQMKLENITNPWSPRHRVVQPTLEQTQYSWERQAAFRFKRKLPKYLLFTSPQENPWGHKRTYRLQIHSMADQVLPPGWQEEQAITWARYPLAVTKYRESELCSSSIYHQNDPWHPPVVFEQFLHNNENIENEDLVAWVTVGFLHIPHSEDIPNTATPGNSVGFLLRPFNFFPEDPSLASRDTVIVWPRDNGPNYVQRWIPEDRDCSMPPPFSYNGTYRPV
Outline: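 Inhibition of recombinant human DAO (diamine oxidase, R&D systems) was assessed with the Amplex Red Hydrogen Peroxide Assay Kit. Hydrogen peroxide produced from 1 mM putrescine was detected through an HRP-coupled reaction that converts Amplex Red into fluorescent resorufin, read at 544 nm excitation and 590 nm emission. IC50 values came from four-parameter logistic fits in GraphPad Prism.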

[2] = target: T2, recombinant human MAO-A (monoamine oxidase-A) (Homo sapiens, UniProt P21397); assay: Activity on recombinant human MAO-A, Amplex Red method, 0.5 mM tyramine substrate; conditions: read-out: Inhibitory Activity (IC50, nM) MAO-A
T2 construct: purchased Sigma-Aldrich
T2 sequence (P21397 1-527): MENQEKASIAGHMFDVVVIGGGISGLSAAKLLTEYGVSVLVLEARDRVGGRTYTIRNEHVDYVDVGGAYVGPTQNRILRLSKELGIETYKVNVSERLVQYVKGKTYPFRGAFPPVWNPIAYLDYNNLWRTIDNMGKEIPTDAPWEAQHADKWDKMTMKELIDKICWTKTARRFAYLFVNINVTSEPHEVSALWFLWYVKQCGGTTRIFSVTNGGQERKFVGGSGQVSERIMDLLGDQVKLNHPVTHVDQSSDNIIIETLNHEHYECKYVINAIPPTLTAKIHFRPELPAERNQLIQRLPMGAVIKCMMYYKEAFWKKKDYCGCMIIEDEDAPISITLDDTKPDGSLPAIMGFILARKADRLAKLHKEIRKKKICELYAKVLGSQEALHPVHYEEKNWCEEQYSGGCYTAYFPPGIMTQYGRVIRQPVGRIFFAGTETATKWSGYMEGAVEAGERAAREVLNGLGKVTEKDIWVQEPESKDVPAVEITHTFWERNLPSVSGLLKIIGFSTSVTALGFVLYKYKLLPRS
Outline: (§1)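 Enzyme preincubated with compound 30 min at 37 °C in 50 mM sodium phosphate pH 7.4, final DMSO below 1%. Substrate was 0.5 mM tyramine for MAO-A and 1 mM benzylamine for MAO-B, with 200 uM Amplex Red and 1 U/mL HRP. H2O2-coupled resorufin fluorescence (ex 544/em 590) followed over 1–2 h; 8-point 4-parameter IC50.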

[3] = target: T3, recombinant human VAP-1 (Homo sapiens, UniProt Q16853); assay: Activity on recombinant human VAP-1, Amplex Red HRP-coupled hydrogen peroxide assay, benzylamine substrate; conditions: recombinant human VAP-1, benzylamine substrate, read-out: Inhibitory Activity (IC50, nM) human VAP-1
T3 construct: purchased R&D systems
T3 sequence (Q16853 1-763): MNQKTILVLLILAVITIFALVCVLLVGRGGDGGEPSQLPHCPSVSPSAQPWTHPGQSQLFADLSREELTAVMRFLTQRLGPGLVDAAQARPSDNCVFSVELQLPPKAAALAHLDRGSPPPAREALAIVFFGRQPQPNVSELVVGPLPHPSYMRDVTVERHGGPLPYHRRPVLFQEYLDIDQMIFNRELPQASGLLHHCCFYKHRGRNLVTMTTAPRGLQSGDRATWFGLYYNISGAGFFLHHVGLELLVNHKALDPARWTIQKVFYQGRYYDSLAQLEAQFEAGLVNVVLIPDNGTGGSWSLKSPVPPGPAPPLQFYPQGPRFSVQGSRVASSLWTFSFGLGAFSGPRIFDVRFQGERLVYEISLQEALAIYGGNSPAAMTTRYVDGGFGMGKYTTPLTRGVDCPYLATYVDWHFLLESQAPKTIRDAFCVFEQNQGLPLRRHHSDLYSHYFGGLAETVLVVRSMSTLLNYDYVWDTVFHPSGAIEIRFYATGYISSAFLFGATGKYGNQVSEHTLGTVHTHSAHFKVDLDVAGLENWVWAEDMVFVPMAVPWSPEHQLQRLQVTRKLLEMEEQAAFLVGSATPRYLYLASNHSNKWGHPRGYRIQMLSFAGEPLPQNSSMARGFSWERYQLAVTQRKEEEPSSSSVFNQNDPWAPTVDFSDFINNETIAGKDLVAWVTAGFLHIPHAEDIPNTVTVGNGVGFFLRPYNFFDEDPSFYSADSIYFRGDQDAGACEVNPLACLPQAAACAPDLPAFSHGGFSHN
Outline: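 Enzyme in 50 mM sodium phosphate pH 7.4 preincubated with compound 30 min at 37 °C, then 1 mM benzylamine, 200 µM Amplex Red and 1 U/mL HRP added. H2O2-derived resorufin fluorescence (ex 544/em 590 nm) followed over 1–2 h; signal-rate decrease versus DMSO control, 8-point curve, four-parameter logistic IC50.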

[4] = target: T4, recombinant human MAO-B (monoamine oxidase-B) (Homo sapiens, UniProt P27338); assay: Activity on recombinant human MAO-B, Amplex Red method, 1 mM benzylamine substrate; conditions: read-out: Inhibitory Activity (IC50, nM) MAO-B
T4 construct: purchased Sigma-Aldrich
T4 sequence (P27338 1-520): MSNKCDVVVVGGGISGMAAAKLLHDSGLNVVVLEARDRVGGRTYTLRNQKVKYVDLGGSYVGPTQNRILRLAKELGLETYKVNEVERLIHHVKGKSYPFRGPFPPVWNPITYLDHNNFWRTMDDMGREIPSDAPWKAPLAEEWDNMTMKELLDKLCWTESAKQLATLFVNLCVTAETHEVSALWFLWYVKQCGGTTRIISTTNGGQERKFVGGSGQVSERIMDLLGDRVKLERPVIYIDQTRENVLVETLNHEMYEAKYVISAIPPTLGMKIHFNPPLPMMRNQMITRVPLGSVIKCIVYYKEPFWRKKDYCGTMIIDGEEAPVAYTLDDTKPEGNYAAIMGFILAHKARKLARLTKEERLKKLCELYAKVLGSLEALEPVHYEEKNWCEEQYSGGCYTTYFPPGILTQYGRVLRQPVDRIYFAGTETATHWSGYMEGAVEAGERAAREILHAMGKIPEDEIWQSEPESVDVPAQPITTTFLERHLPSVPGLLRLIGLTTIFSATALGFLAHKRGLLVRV
Outline: as §1

[5] = 1 mM putrescine, * = between 10 and 100 nM, ** = between 300 and 1000 nM

| SMILES | IC50 ([1]; 1 mM putrescine substrate) | IC50 ([2]; 0.5 mM tyramine substrate) | IC50 [3] | IC50 ([4]; 1 mM benzylamine substrate) | IC50 [1, 5] | IC50 ([2]; 0.5 mM tyramine) | IC50 ([3]; 30 min preincubation at 37° C.) | IC50 ([4]; 1 mM benzylamine) |
| --- | --- | --- | --- | --- | --- | --- | --- | --- |
| Cc1ccc(-c2cccc(-c3noc(C4CC4)n3)c2)nc1-n1cnn(C/C(=C/F)CN)c1=O [Example 210, 2-[(2E)-2-(aminomethyl)-3-fluoroprop-2-en-1-yl]-4-{6-[3-(5-cyclopropyl-1,2,4-oxadiazol-3-yl)phenyl]-3-methylpyridin-2-yl}-2,4-dihydro-3H-1,2,4-triazol-3-one hydrochloride] | 4400 nM | > 100000 nM | 52 nM | > 10000 nM | – | – | – | – |
| CC(=O)Nc1ccc(-c2cccc(-c3cccc(-n4cnn(C/C(=C/F)CN)c4=O)c3)c2)cc1 [Example 69, N-(3″-{1-[(2E)-2-(aminomethyl)-3-fluoroprop-2-en-1-yl]-5-oxo-1,5-dihydro-4H-1,2,4-triazol-4-yl}-1,1′:3′,1″-terphenyl-4-yl)acetamide hydrochloride] | – | – | – | – | 11 nM | 4910 nM | 0.63 nM | 1100 nM |
| NC/C(=C\F)Cn1ncn(-c2cc(F)c(Br)c(F)c2)c1=O [Example 20, 2-[(2E)-2-(aminomethyl)-3-fluoroprop-2-en-1-yl]-4-(4-bromo-3,5-difluorophenyl)-2,4-dihydro-3H-1,2,4-triazol-3-one hydrochloride] | – | – | – | – | 15 nM | > 100000 nM | 2.2 nM | > 10000 nM |
| NC/C(=C\F)Cn1ncn(-c2cccc(C#Cc3cnc4c(c3)OCCN4)n2)c1=O [Example 252, 2-[(E)-2-(aminomethyl)-3-fluoro-allyl]-4-[6-[2-(3,4-dihydro-2H-pyrido[3,2-b][1,4]oxazin-7-yl)ethynyl]-2-pyridyl]-1,2,4-triazol-3-one] | 53 nM | > 100000 nM | 0.6 nM | > 10000 nM | – | – | – | – |
| Cc1cc(-c2ccc(C(F)(F)F)nc2)cnc1-n1cnn(C/C(=C/F)CN)c1=O [Example 148, 2-[(2E)-2-(aminomethyl)-3-fluoroprop-2-en-1-yl]-4-[5-methyl-6′-(trifluoromethyl)-3,3′-bipyridin-6-yl]-2,4-dihydro-3H-1,2,4-triazol-3-one hydrochloride] | – | – | – | – | 35 nM | 160000 nM | 0.4 nM | > 10000 nM |
| NC/C(=C/F)Cn1ncn(-c2ccc(Br)c(F)c2)c1=O [Example 13, 2-[(2Z)-2-(aminomethyl)-3-fluoroprop-2-en-1-yl]-4-(4-bromo-3-fluorophenyl)-2,4-dihydro-3H-1,2,4-triazol-3-one] | – | – | – | – | 67 nM | 155 nM | 2.3 nM | 3.3 nM |
| NC/C(=C\F)Cn1ncn(-c2ccc(F)c(F)c2)c1=O [Example 10, 2-[(2E)-2-(aminomethyl)-3-fluoroprop-2-en-1-yl]-4-(3,4-difluorophenyl)-2,4-dihydro-3H-1,2,4-triazol-3-one hydrochloride] | – | – | – | – | 100 nM | > 100000 nM | 2.4 nM | 1610 nM |
| Cc1cc(-n2cnn(C/C(=C/F)CN)c2=O)ccc1Br [Example 16, 2-[(2E)-2-(aminomethyl)-3-fluoroprop-2-en-1-yl]-4-(4-bromo-3-methylphenyl)-2,4-dihydro-3H-1,2,4-triazol-3-one hydrochloride] | – | – | – | – | 12 nM | 32000 nM | 0.74 nM | 141 nM |
| Cc1cc(-c2ccc3nonc3c2)cnc1-n1cnn(C/C(=C/F)CN)c1=O [Example 152, 2-[(2E)-2-(aminomethyl)-3-fluoroprop-2-en-1-yl]-4-[5-(2,1,3-benzooxadiazol-5-yl)-3-methylpyridin-2-yl]-2,4-dihydro-3H-1,2,4-triazol-3-one hydrochloride] | 1300 nM | 7420 nM | 0.5 nM | 314 nM | – | – | – | – |
| Cc1cc(-c2cccc(-n3cnn(C/C(=C/F)CN)c3=O)c2)ccc1N1CCOCC1 [Example 77, 2-[(2E)-2-(aminomethyl)-3-fluoroprop-2-en-1-yl]-4-[3′-methyl-4′-(morpholin-4-yl)biphenyl-3-yl]-2,4-dihydro-3H-1,2,4-triazol-3-one hydrochloride] | – | – | – | – | 18 nM | > 100000 nM | 0.8 nM | > 10000 nM |
| NC/C(=C\F)Cn1ncn(-c2cccc(-c3ccc4c(c3)OCCO4)c2)c1=O [Example 95, 2-[(2E)-2-(aminomethyl)-3-fluoroprop-2-en-1-yl]-4-[3-(2,3-dihydro-1,4-benzodioxin-6-yl)phenyl]-2,4-dihydro-3H-1,2,4-triazol-3-one hydrochloride] | – | – | – | – | 37 nM | > 100000 nM | 0.69 nM | 1460 nM |
